Laboratory results published in patent US9670227B2, “Thienopyrimidine derivatives, a process for their preparation and pharmaceutical compositions containing them” (LES LABORATOIRES SERVIER, priority 2013, dated 2017).

The compounds below were run against Mcl-1 protein (UniProtKB primary accession number: Q07820) (Homo sapiens, UniProt Q07820) (assay: Inhibition of Mcl-1 by fluorescence polarisation, Method 1). Conditions: fluorescence polarisation test; Method 2 values are underlined in the patent (underlining not visible here); read-out: IC50 (M) Mcl-1 FP.
Sequence of Mcl-1 protein (Q07820 whole entry): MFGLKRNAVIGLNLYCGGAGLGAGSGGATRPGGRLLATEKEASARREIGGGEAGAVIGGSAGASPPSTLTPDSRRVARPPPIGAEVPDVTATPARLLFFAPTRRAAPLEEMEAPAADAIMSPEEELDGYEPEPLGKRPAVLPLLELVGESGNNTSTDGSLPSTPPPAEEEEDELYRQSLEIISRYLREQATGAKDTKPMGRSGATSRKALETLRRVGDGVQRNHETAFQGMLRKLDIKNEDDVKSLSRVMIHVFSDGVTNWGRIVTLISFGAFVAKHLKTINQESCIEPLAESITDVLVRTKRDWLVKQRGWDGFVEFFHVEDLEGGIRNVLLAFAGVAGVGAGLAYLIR
Assay type: binding
Description: The relative binding potency of each compound was determined via Fluorescence Polarisation (FP).
An 11 point serial dilution of each compound was prepared in DMSO and 2 μl transferred into flat bottomed, low binding, 384-well plate (final DMSO concentration 5%). 38 μl of buffer (10 mM 4-(2-hydroxyethyl)-1-piperazineethanesulfonic acid [HEPES], 150 mM NaCl, 0.05% Tween 20, pH 7.4), containing the Fluorescein labelled ligand (final concentration 1 nM) and Mcl-1 protein (final concentration 5 nM) was then added.

IC50 | Compound
1.6e-06 M | Cc1c(-c2c(-c3ccc(F)o3)sc3ncnc(OC(Cc4ccccc4OCc4ccccn4)C(=O)O)c23)ccc(OCCN2CCN(C)CC2)c1Cl (single isomer, unassigned) [Example 165]
6e-09 M | Cc1c(-c2c(-c3ccc(F)o3)sc3ncnc(OC(Cc4ccccc4OCc4ccccn4)C(=O)O)c23)ccc(OCCN2CCN(C)CC2)c1Cl (single isomer, unassigned) [Example 166]
3.7e-08 M | COc1ccccc1CC(Oc1ncnc2sc(-c3ccco3)c(-c3ccc(OC4CCCCN(C)C4)c(Cl)c3C)c12)C(=O)O (single isomer, unassigned) [Example 300, (2R)-2-{[(5Sa)-5-{3-chloro-2-methyl-4-[(3R or S)-(1-methylazepan-3-yl)oxy]phenyl}-6-(furan-2-yl)thieno[2,3-d]pyrimidin-4-yl]oxy}-3-(2-methoxyphenyl)propanoic acid]
3e-08 M | COc1ccccc1CC(Oc1ncnc2sc(-c3ccco3)c(-c3ccc(OCCC4CN(C)CCO4)c(Cl)c3C)c12)C(=O)O (single isomer, unassigned) [Example 318]
7.9e-07 M | COc1ccccc1C[C@@H](Oc1ncnc2sc(-c3ccco3)c(-c3ccc(OCCN4CCN(C)CC4)c(F)c3C)c12)C(=O)O (single isomer, unassigned) [Example 333]
3.5e-07 M | Cc1c(-c2c(-c3ccco3)sc3ncnc(O[C@@H](C(=O)O)[C@@H](O)c4ccccc4)c23)ccc(OCCN2CCN(C)CC2)c1Cl (single isomer, unassigned) [Example 342]
2.5e-07 M | Cc1c(-c2c(-c3ccco3)sc3ncnc(O[C@@H](C(=O)O)[C@@H](O)c4ccccc4)c23)ccc(OCCN2CCN(C)CC2)c1Cl (single isomer, unassigned) [Example 343]

Same assay, conditions: fluorescence polarisation; Method 1, or Method 2; read-out: IC50 (M) Mcl-1 FP

IC50 | Compound
4.8e-07 M | CC#Cc1sc2ncnc(O[C@H](Cc3ccccc3OC)C(=O)O)c2c1-c1cc(F)c(OC)c(Cl)c1C (single isomer, unassigned) [Example 470]
6.3e-09 M | CC#Cc1sc2ncnc(O[C@H](Cc3ccccc3OC)C(=O)O)c2c1-c1cc(F)c(OC)c(Cl)c1C (single isomer, unassigned) [Example 471]
5.3e-07 M | CC#Cc1sc2ncnc(O[C@H](Cc3ccccc3OC)C(=O)O)c2c1-c1ccc(CCCN(C)C)c(Cl)c1C (single isomer, unassigned) [Example 478]
1.1e-08 M | CC#Cc1sc2ncnc(O[C@H](Cc3ccccc3OC)C(=O)O)c2c1-c1ccc(CCCN(C)C)c(Cl)c1C (single isomer, unassigned) [Example 479]
8.4e-08 M | COc1ccccc1CC(Oc1ncnc2sc(C3CCCO3)c(-c3ccc(OCCN4CCN(C)CC4)c(Cl)c3C)c12)C(=O)O (single isomer, unassigned) [Example 590, (2R)-2-{[(5Sa)-5-{3-chloro-2-methyl-4-[2-(4-methylpiperazin-1-yl)ethoxy]phenyl}-6-((2S or R)-tetrahydrofuran-2-yl)thieno[2,3-d]pyrimidin-4-yl]oxy}-3-(2-methoxyphenyl)propanoic acid]
5.1e-08 M | Cc1c(-c2c(-c3ccc(F)cc3)sc3ncnc(OC(Cc4ccccc4OCC4CCCO4)C(=O)O)c23)ccc(OC2CCCN(C)C2)c1Cl (single isomer, unassigned) [Example 650, (2R)-2-{[(5Sa)-5-{3-chloro-2-methyl-4-[((3R or S)-1-methylpiperidin-3-yl)oxy]phenyl}-6-(4-fluorophenyl)thieno[2,3-d]pyrimidin-4-yl]oxy}-3-{2-[(2R)-tetrahydrofuran-2-ylmethoxy]phenyl}propanoic acid]
1.6e-08 M | COc1ccccc1C[C@@H](Oc1ncnc2sc(-c3ccc(F)cc3)c(-c3ccc(CCCN4CCN(C)CC4)c(Cl)c3C)c12)C(=O)O (single isomer, unassigned) [Example 653]
